Measured values taken from patent US20250120932A1, “PHARMACEUTICAL COMPOSITION” (NEUROPRO THERAPEUTICS, INC., priority 2021, published 2025).
Several values for one entry are separate records, joined by “and”; a condition that tells them apart may be missing. Equal entries are not always repeated. Where two headings read alike, the source gives them in different places.

What was measured:
[1] = Crossover pharmacokinetic study of Bumetanide Dibenzylamide formulations (IN, SL, IM, PO, SC, IR) in Beagle dogs, plasma LC-MS/MS; format: in vivo; conditions: for half-life: read-out: t½ (converted)
Procedure: Male and female Beagle dogs are assigned to two groups with 2 males and 2 females in each group. The study is conducted in 3 legs with Leg 1 consisting of IM and SL administration, Leg 2 consisting of IN and PO administration, and Leg 3 consisting of SC and IR administration.
During intranasal administration, the composition is administered by gently tilting the animals head back and the intranasal dose is delivered via a syringe and atomizer. During sublingual administration, the composition is administered via a quick dissolving tablet. The tablet is placed in the sublingual space and the mouth held shut for approximately 60-90 seconds. After one minute, the mouth of the animal is opened to confirm that the tablet has fully dissolved. During intramuscular administration, the composition is administered into the bicep femoris (rear thigh). The dose site is gently shaved prior to dosing. A syringe with a 25 g needle is utilized. During oral administration, the composition is administered via three capsules placed at the back of the animal's mouth and the placement is followed by a 10 mL drinking water flush to assure that the animal swallowed the capsules. During subcutaneous administration, the composition is administered into the dorsal subcutaneous space directly at the scruff of the neck of the animal. The dose site is gently shaved prior to dosing. A syringe with a 25 g needle is utilized. During intrarectal administration, the composition is administered by gently placing a 1 cc syringe in the rectum of the animal.
All animals are fasted for approximately 12 hours prior to dosing. Animals are fed four hours post dosing with water offered ad libitum throughout the study. All animals completed the study. […] Blood and urine samples are collected out to 24 hours.
Blood sample are collected from the jugular vein, or other suitable vessel via direct venipuncture, placed into a chilled tube containing K2EDTA as the anticoagulant, and inverted several times to mix. Blood samples are kept on wet ice until centrifugation.
The assay is verified with respect to standard bioanalytical methodology including acceptable accuracy and precision based upon quality control sample analysis and results. The range of the method for both analytes is from about 0.250 ng/ml to about 250 ng/mL.
The PK parameters defined in Table 10 are calculated by non-compartmental methods using individual animal concentration-time data. […] Nominal blood sampling times are used in the analysis. […] Individual below quantitation limits (BQL) results are set to zero for all calculations. No animals are excluded from the analysis. In one aspect, non-compartmental pharmacokinetic analysis provides observed or calculated values of Cmax, Tmax, and AUClast for all animals and estimates of AUCinf and CL/F for those animals where a terminal phase half-life (t1/2) could be estimated.

[2] = Solubility in injection vehicle compositions; format: physicochemical; conditions: 40% PEG-400, 20% Propylene glycol, 5% Ethanol, 35% water
Source text: Multiple vehicle compositions were investigated, resulting in a clear dosing solution or suspension at the time of the preparation or shortly after the preparation. Vehicles tested included 55% Polyethylene glycol 400 (PEG-400) in water, 41% PEG-400, 12% Ethanol, 47% water, 45% PEG-400, 10% DMSO, 45% Water, 31% PEG-400, 31% Tetraglycol, 15% Caprylocaproyl Polyoxylglycerides (Labrasol ALF), 23% water, 30% PEG-400, 10% N-Methyl Pyrrolidone, 10% DMSO, 50% water, 25% PEG-400, 10% DMSO, 20% Tetraglycol, 45% water, 20% Ethanol in water, 20% Hydroxypropyl-β-Cyclodextrin in water, 11% DMSO, 22% PEG-400, 22% Tetraglycol, 44% water, 44% PEG-400, 0.4% Poloxamer-188, 22% N-Methyl Pyrrolidone, 33% water, and 20% PEG-400, 15% Hydroxypropyl-β-Cyclodextrin in water.
After filtration with a 0.22 μm PVDF filter, the sample stayed clear for up to 7 days. The compositions selected for animal studies are described in Table 67 and Table 68.

physchem = assay: physchem
Source text: Crucial to the efficacy of any treatment by a pharmaceutical composition is the overall systemic bioavailability of the pharmaceutical composition used for said treatment. […] LogP is one measure of lipophyilicity, and is the octal:water partition coefficient expressed as a log ratio of molecule in octanol relative to water after mixing.

[3] = Prototype capsule (SEDDS) development: solubilization and dispersion test in water; format: physicochemical; conditions: capsule compositions with long chain triglycerides and 0 to 4.68% w/w ethanol
Procedure: Prototype capsule formulations were developed at a less than 2-gram scale. […] The oil phase was then added to the formulations and stirred until the solution became clear. The solutions were cooled to room temperature while stirring and co-solvent was then added (if applicable).
To test if the composition created macro-dispersions or micro-dispersions, about 30 mg of formulation was added into 1.0 g of water and lightly swirled. The resultant dispersion was visually characterized. SEDDS (macroemulsions) are typically characterized as an opaque milky white uniform liquid, and SEDDS (microemulsions) are characterized by a clear, isotropic, transparent solution with opalescence. […] Compositions 4 and 6 were selected for future development work, and the intermediate stability of those compositions was evaluated as described below.

[4] = both sexes, Beagle, dog, plasma, po, 30 mg, PO capsules
[5] = both sexes, Beagle, dog, plasma, sc, 15 mg

Plasma Bumetanide Dibenzylamide concentration ([1]; IN, 15 mg, 24 h): 3.15 ng/mL and 2.07 ng/mL and 1.59 ng/mL
Plasma Bumetanide Dibenzylamide concentration ([1]; IN, 15 mg, 24 h, mean): 2.31 ng/mL
CL/F ([1]; IN, 15 mg, mean): 72.5 L/h
Mean concentrations of Bumetanide Dibenzylamide ([1]; IR, 30 mg, at all times after dosing): less than 10 ng/mL
t½ ([1]; PO capsules, 30 mg): 5.62 h and 6.79 h and 5.10 h
Plasma Bumetanide Dibenzylamide concentration ([1]; PO capsules, 30 mg, 2 h): 280 ng/mL and 158 ng/mL and 175 ng/mL
Plasma Bumetanide Dibenzylamide concentration ([1]; PO capsules, 30 mg, 2 h, mean): 218 ng/mL
Plasma Bumetanide Dibenzylamide concentration ([1]; PO capsules, 30 mg, 4 h): 85.3 ng/mL and 68.7 ng/mL and 56.9 ng/mL
Plasma Bumetanide Dibenzylamide concentration ([1]; PO capsules, 30 mg, 4 h, mean): 76.7 ng/mL
Plasma Bumetanide Dibenzylamide concentration ([1]; PO capsules, 30 mg, 8 h): 21.2 ng/mL and 21.9 ng/mL and 15.7 ng/mL
Plasma Bumetanide Dibenzylamide concentration ([1]; PO capsules, 30 mg, 8 h, mean): 20.1 ng/mL
Plasma Bumetanide Dibenzylamide concentration ([1]; PO capsules, 30 mg, 12 h): 8.65 ng/mL and 10.5 ng/mL and 7.91 ng/mL
Plasma Bumetanide Dibenzylamide concentration ([1]; PO capsules, 30 mg, 12 h, mean): 9.34 ng/mL
Plasma Bumetanide Dibenzylamide concentration ([1]; PO capsules, 30 mg, 24 h): 2.86 ng/mL and 2.84 ng/mL and 2.83 ng/mL
Plasma Bumetanide Dibenzylamide concentration ([1]; PO capsules, 30 mg, 24 h, mean): 2.71 ng/mL
AUClast ([1]; PO capsules, 30 mg, mean): 791 ng·h/mL
CL/F ([1]; PO capsules, 30 mg, mean): 37.9 L/h
t½ ([1]; PO capsules, 30 mg, mean): 5.85 h
t½ ([1]; SC, 15 mg): 36.2 h and 22.2 h and 19.1 h
Plasma Bumetanide Dibenzylamide concentration ([1]; SC, 15 mg, 0 h): 1.65 ng/mL and 2.39 ng/mL and 1.55 ng/mL
Plasma Bumetanide Dibenzylamide concentration ([1]; SC, 15 mg, 0 h, mean): 1.75 ng/mL
Plasma Bumetanide Dibenzylamide concentration ([1]; SC, 15 mg, 0.5 h): 2.76 ng/mL and 3.42 ng/mL and 1.81 ng/mL
Plasma Bumetanide Dibenzylamide concentration ([1]; SC, 15 mg, 0.5 h, mean): 2.52 ng/mL
Plasma Bumetanide Dibenzylamide concentration ([1]; SC, 15 mg, 8 h): 4.54 ng/mL and 7.47 ng/mL and 4.14 ng/mL
Plasma Bumetanide Dibenzylamide concentration ([1]; SC, 15 mg, 8 h, mean): 5.71 ng/mL
Plasma Bumetanide Dibenzylamide concentration ([1]; SC, 15 mg, 12 h): 3.35 ng/mL and 5.77 ng/mL and 3.22 ng/mL
Plasma Bumetanide Dibenzylamide concentration ([1]; SC, 15 mg, 12 h, mean): 4.36 ng/mL
Plasma Bumetanide Dibenzylamide concentration ([1]; SC, 15 mg, 24 h): 2.43 ng/mL and 4.30 ng/mL and 2.90 ng/mL
Plasma Bumetanide Dibenzylamide concentration ([1]; SC, 15 mg, 24 h, mean): 3.33 ng/mL
AUClast ([1]; SC, 15 mg, mean): 113 ng·h/mL
CL/F ([1]; SC, 15 mg, mean): 68.2 L/h
t½ ([1]; SC, 15 mg, mean): 24.8 h
CL/F ([1]; SL, 30 mg): 1690 L/h
Tmax ([1]; SL, 30 mg): 1.00 h
Tmax ([1]; SL, 30 mg, mean): 1.50 h
AUC(0-inf) ([1]; both sexes, Beagle, dog, plasma, 30 mg, IR): 55.1 ng·h/mL
Cmax ([1]; both sexes, Beagle, dog, plasma, 30 mg, IR, 30 mg, read-out: mean Cmax): 8.44 ng/mL
AUC(0-inf) ([1]; both sexes, Beagle, dog, plasma, 30 mg, SL): 17.7 ng·h/mL
Tmax ([1]; both sexes, Beagle, dog, plasma, 30 mg, SL, 30 mg, read-out: Tmax): 2 h
half-life ([1]; both sexes, Beagle, dog, plasma, 30 mg, SL, 30 mg): 5.26 h
AUC(0-inf) ([1]; both sexes, Beagle, dog, plasma, inhaled or intranasal, 15 mg, IN): 211 ng·h/mL
AUC(0-inf) [1, 4]: 814 ng·h/mL
AUC(0-t) [1, 4]: 956 ng·h/mL
Cmax ([1]; both sexes, Beagle, dog, plasma, po, 30 mg, PO capsules, 30 mg, read-out: Cmax): 218 ng/mL
Tmax ([1]; both sexes, Beagle, dog, plasma, po, 30 mg, PO capsules, 30 mg, read-out: Tmax): 2 h
half-life ([1]; both sexes, Beagle, dog, plasma, po, 30 mg, PO capsules, 30 mg): 5.89 h
AUC(0-inf) [1, 5]: 231 ng·h/mL
AUC(0-t) [1, 5]: 153 ng·h/mL
half-life ([1]; both sexes, Beagle, dog, plasma, sc, 15 mg, SC, 15 mg): 21.5 h
time sample stayed clear after filtration ([2]; 0.22 μm PVDF filter): up to 7 days
time as clear solution ([2]; room temperature): at least 3 hours
logP (physchem): ~5.9
maximum solubility of Bumetanide Dibenzylamide [3]: about 1.8 % w/w
SMILES: CCCCNc1cc(C(=O)N(Cc2ccccc2)Cc2ccccc2)cc(S(N)(=O)=O)c1Oc1ccccc1 [Bumetanide Dibenzylamide, N, N-dibenzyl 3-aminosulfonyl-5-butylamino-4-phenoxybenzamide]
AUCinf ([1]; IN, 15 mg): 234 ng·h/mL and 224 ng·h/mL and 164 ng·h/mL and 221 ng·h/mL
CL/F ([1]; IN, 15 mg): 64.1 L/h and 66.8 L/h and 91.5 L/h and 67.7 L/h
AUCinf ([1]; PO capsules, 30 mg): 980 ng·h/mL and 698 ng·h/mL and 666 ng·h/mL and 910 ng·h/mL
AUClast ([1]; PO capsules, 30 mg): 675 ng·h/mL and 639 ng·h/mL and 893 ng·h/mL
CL/F ([1]; PO capsules, 30 mg): 30.6 L/h and 43.0 L/h and 45.0 L/h and 33.0 L/h
Cmax ([1]; PO capsules, 30 mg): 280 ng/mL and 158 ng/mL and 175 ng/mL and 259 ng/mL
AUCinf ([1]; SC, 15 mg): 286 ng·h/mL and 247 ng·h/mL and 158 ng·h/mL
AUClast ([1]; SC, 15 mg): 79.8 ng·h/mL and 129 ng·h/mL and 91.3 ng·h/mL
CL/F ([1]; SC, 15 mg): 52.4 L/h and 64.8 L/h and 60.7 L/h and 94.7 L/h
adverse reactions ([1]; all routes, 15 or 30 mg): no adverse reactions are noted
